# From PMC9497135, “Structure-Based Study to Overcome Cross-Reactivity of Novel Androgen Receptor Inhibitors” (Cells, 2022)
# Experiments:
# [1] = system: prostate-specific antigen (PSA) expression in LNCaP cells; assay: PSA assay in LNCaP cells; type: cell-based; details: Homo sapiens, 72 h, with R1881, 3 days
# Experimental: The PSA assay was performed in parallel with the previous reporter eGFP assay and using the same plates. After 3 days incubation of LNCAP cells with R1881 and the test compound, 150 µL of the media was taken from each well and added to 150 µL of PBS. PSA levels were then evaluated using the Cobas e 411 analyzer instrument (Roche Diagnostics) according to the manufacturer’s instructions.
# T878A AR LBD = target: T1, T878A AR LBD (Homo sapiens, UniProt P10275, T878A); assay: Biolayer interferometry (BLI), T878A LBD; type: binding
# T1 construct: made in house; host or cells: E. coli BL21-DE3 co-transformed with pBirACm
# T1 sequence (P10275 669-900 T878A limits assumed): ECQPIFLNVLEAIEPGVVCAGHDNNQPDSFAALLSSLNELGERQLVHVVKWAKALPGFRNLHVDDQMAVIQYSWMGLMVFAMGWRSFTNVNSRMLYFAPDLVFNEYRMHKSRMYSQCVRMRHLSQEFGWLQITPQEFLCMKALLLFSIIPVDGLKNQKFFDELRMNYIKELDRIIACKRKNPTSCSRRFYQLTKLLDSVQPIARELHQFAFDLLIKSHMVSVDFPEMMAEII
# Experimental: The direct reversible interaction between small molecules and the AR was quantified by BLI using OctetRED (ForteBio, Fremont, CA, USA). The wild type and T878A-LDB in fusion with an N-terminal (His)6-avidin ([…]) tag were expressed in E. coli BL21-DE3 cells co-transformed with pBirACm plasmid (Avidity), which expresses a biotin ligase leading to the biotynilation of the avidin tag on the LBD. Cells were grown in LB media at 37 °C to an OD600nm = 0.5 and then induced with 0.5 mM isopropyl-β-D-thiogalactoside. A measure of 20 µM of dihydrotestosterone (DHT) and 0.15 mM biotin were added and the cells were incubated at 16 °C for 18 to 20 h. Cells were then resuspended and lysed in buffer containing 500 mM Li2SO4, 50mM HEPES pH7.2, 10% Glycerol, 0.1% Octyl-beta-Glucoside, 20 µM of DHT, 5 mM β-mercaptoethanol, 10 mM imidazole and 0.1 mM phenylmethanesulfonyl fluoride. […] After an overnight dialysis against 150 mM Li2SO4, 50 mM HEPES pH7.2, 10% Glycerol, 0.1% Octyl-beta-Glucoside, 20 µM of DHT and 0.2 mM tris(2-carboxyethyl)phosphine, purified proteins at 50 µg/mL were bound to the super-streptavidin sensors overnight at 4 °C. The assay was performed at 20 °C in the dialysis buffer supplemented with 5% dimethyl sulfoxide (DMSO) which was also used as our reference measurement.
compound,measurement,setting,value
"COc1c(F)cccc1-c1csc(N2CCOCC2)n1 [VPC14368, 4-(4-(3-fluoro-2-methoxyphenyl)thiazol-2-yl)morpholine]",IC50,[1],0.13 µM
same,Direct binding to T878A LBD by BLI,T878A AR LBD,confirmed at high concentrations and in a concentration-dependent manner
same,Concentration at which binding is seen (BLI),"T878A AR LBD; Figure 2, 50-300 µM tested",above 100 µM
